Patent publication US20210207064A1, “COMPOUND FOR RESTORING CONTAMINATED SOIL OR CONTAMINATED WATER” (FNG RESEARCH CO., LTD., priority 2018, published 2021)

Legend:
[1] = Heavy metal removal ability test in contaminated soil (ICP-MS), nickel; details: for Nickel (Ni) Adsorption amount: contaminated soil; for Nickel (Ni) Adsorption rate: relative to EDTA control
Procedure, shortened: (§1)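 Sieved soil spiked with aqueous heavy metal, mixed 5 min with 3 ml of test solution, then extracted with 50 ml distilled water (20 min stirring, 1 h settling). Supernatant metal measured by ICP-MS; adsorption rate (%) expressed relative to control.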

human skin = assay: Skin irritation test of active ingredient (patch method, CTFA guidelines); format: in vivo; details: 24 h patch; for Test result (number of subject) (+) / Test result (number of subject) (++) / Test result (number of subject) (±) / Test result (number of subject) (−): 20 people; for Test result (number of subject) (+): (+) apparent reddening; for Test result (number of subject) (++): (++) more reddened and swollen; for Test result (number of subject) (±): (±) slightly reddish; for Test result (number of subject) (−): (−) no erythema
[2] = Heavy metal removal ability test in contaminated soil (ICP-MS), cadmium; details: for Cadmium (Cd) Adsorption amount: contaminated soil; for Cadmium (Cd) Adsorption rate: relative to EDTA control
Procedure, shortened: as §1

[3] = Heavy metal removal ability test in contaminated soil (ICP-MS), arsenic; details: for Arsenic (As) Adsorption amount: contaminated soil; for Arsenic (As) Adsorption rate: relative to EDTA control
Procedure, shortened: as §1

[4] = Heavy metal removal ability test in contaminated soil around a factory (WAK-Me test kit); details: 1.0 wt % aqueous solution, colour comparison test kit
Experimental: The contaminated soil around the factory in the industrial complex was collected, pulverized, and meshed to prepare fine particles of soil samples.
Each 3 ml of aqueous solutions for restoring soil was added to soil samples and mixed for 5 minutes.

[5] = Formaldehyde (formalin) removing ability test (GC); details: 2.0% formaldehyde solution, 3 molar equivalents of compound, room temperature; for Formaldehyde GC Area, 30 min: after 30 min; for Formaldehyde GC Area, 180 min: after 180 min; for Formaldehyde GC Area, Initial: initial state

Compound | Nickel (Ni) Adsorption amount ([1]; content 0.5% aqueous solution) [ppm] | Nickel (Ni) Adsorption rate ([1]; content 0.5%) [%] | Nickel (Ni) Adsorption amount ([1]; content 1.0% aqueous solution) [ppm] | Nickel (Ni) Adsorption rate ([1]; content 1.0%) [%] | Nickel (Ni) Adsorption amount ([1]; content 2.0% aqueous solution) [ppm] | Nickel (Ni) Adsorption rate ([1]; content 2.0%) [%] | Test result (number of subject) (+) (human skin; content 0.1 wt %) | Test result (number of subject) (++) (human skin; content 0.1 wt %) | Test result (number of subject) (±) (human skin; content 0.1 wt %) | Test result (number of subject) (−) (human skin; content 0.1 wt %) | Degree of irritation (human skin; content 0.1 wt %) | Grade for skin irritation (human skin; content 0.1 wt %) | Test result (number of subject) (+) (human skin; content 0.5 wt %) | Test result (number of subject) (++) (human skin; content 0.5 wt %) | Test result (number of subject) (±) (human skin; content 0.5 wt %) | Test result (number of subject) (−) (human skin; content 0.5 wt %) | Degree of irritation (human skin; content 0.5 wt %) | Grade for skin irritation (human skin; content 0.5 wt %) | Test result (number of subject) (+) (human skin; content 1.0 wt %) | Test result (number of subject) (++) (human skin; content 1.0 wt %) | also measured
O=C(O)CN1CCCN(CC(=O)O)CCN(CC(=O)O)CCCN(CC(=O)O)CC1 [Embodiment 9, 2,2′,2″,2′″-(1,4,8,11-tetraazacyclotetradecane-1,4,8,11-tetrayl)tetraacetic Acid] | 76 | 155 | 85 | 173 | 96 | 196 | 0 | 0 | 0 | 20 | 0 | I (Degree of irritation 0-0.1: Grade I (unstimulated)) | 0 | 0 | 0 | 20 | 0 | I (Degree of irritation 0-0.1: Grade I (unstimulated)) | 0 | 0 | Test result (number of subject) (±) (human skin; content 1.0 wt %): 2; Test result (number of subject) (−) (human skin; content 1.0 wt %): 18; Degree of irritation (human skin; content 1.0 wt %): 0.10; Grade for skin irritation (human skin; content 1.0 wt %): I (Degree of irritation 0-0.1: Grade I (unstimulated)); Cadmium (Cd) Adsorption amount ([2]; content 0.5% aqueous solution): 61 ppm; Cadmium (Cd) Adsorption rate ([2]; content 0.5%): 149%; Cadmium (Cd) Adsorption amount ([2]; content 1.0% aqueous solution): 66 ppm; Cadmium (Cd) Adsorption rate ([2]; content 1.0%): 161%; Cadmium (Cd) Adsorption amount ([2]; content 2.0% aqueous solution): 70 ppm; Cadmium (Cd) Adsorption rate ([2]; content 2.0%): 171%; Arsenic (As) Adsorption amount ([3]; content 0.5% aqueous solution): 42 ppm; Arsenic (As) Adsorption rate ([3]; content 0.5%): 168%; Arsenic (As) Adsorption amount ([3]; content 1.0% aqueous solution): 46 ppm; Arsenic (As) Adsorption rate ([3]; content 1.0%): 184%; Arsenic (As) Adsorption amount ([3]; content 2.0% aqueous solution): 48 ppm; Arsenic (As) Adsorption rate ([3]; content 2.0%): 192%; Total amount (Cu, Zn, Mn, Ni, Cd) [4]: ≤5 ppm; Formaldehyde GC Area, 30 min [5]: 0.182 mAU*min; Formaldehyde GC Area, 180 min [5]: 0 mAU*min; Formaldehyde GC Area, Initial [5]: 0.305 mAU*min
O=C(O)c1cncc(N2CCN(c3cncc(C(=O)O)c3)CCN(c3cncc(C(=O)O)c3)CCN(c3cncc(C(=O)O)c3)CC2)c1 [Embodiment 7, 5,5′,5″,5′″-(1,4,7,10-tetraazacyclododecane-1,4,7,10-tetrayl)tetranicotinic Acid] | 92 | 188 | 97 | 198 | 102 | 208 | 0 | 0 | 0 | 20 | 0 | I (Degree of irritation 0-0.1: Grade I (unstimulated)) | 0 | 0 | 0 | 20 | 0 | I (Degree of irritation 0-0.1: Grade I (unstimulated)) | 0 | 0 | Test result (number of subject) (±) (human skin; content 1.0 wt %): 0; Test result (number of subject) (−) (human skin; content 1.0 wt %): 20; Degree of irritation (human skin; content 1.0 wt %): 0; Grade for skin irritation (human skin; content 1.0 wt %): I (Degree of irritation 0-0.1: Grade I (unstimulated)); Cadmium (Cd) Adsorption amount ([2]; content 0.5% aqueous solution): 62 ppm; Cadmium (Cd) Adsorption rate ([2]; content 0.5%): 151%; Cadmium (Cd) Adsorption amount ([2]; content 1.0% aqueous solution): 72 ppm; Cadmium (Cd) Adsorption rate ([2]; content 1.0%): 176%; Cadmium (Cd) Adsorption amount ([2]; content 2.0% aqueous solution): 76 ppm; Cadmium (Cd) Adsorption rate ([2]; content 2.0%): 185%; Arsenic (As) Adsorption amount ([3]; content 0.5% aqueous solution): 41 ppm; Arsenic (As) Adsorption rate ([3]; content 0.5%): 164%; Arsenic (As) Adsorption amount ([3]; content 1.0% aqueous solution): 45 ppm; Arsenic (As) Adsorption rate ([3]; content 1.0%): 180%; Arsenic (As) Adsorption amount ([3]; content 2.0% aqueous solution): 51 ppm; Arsenic (As) Adsorption rate ([3]; content 2.0%): 204%; Total amount (Cu, Zn, Mn, Ni, Cd) [4]: ≤5 ppm; Formaldehyde GC Area, 30 min [5]: 0.181 mAU*min; Formaldehyde GC Area, 180 min [5]: 0 mAU*min; Formaldehyde GC Area, Initial [5]: 0.305 mAU*min
